Some test systems named below: A498; CCRF-CEM; HL-60; HOP-62; HOP-92; Hs-578T; LOX IMVI; LXFL 529; MDA-MB-231; Malme-3M; NCI-H460; OVCAR-4; RPMI-8226; RXF 393; SF-268; SF-539; SR; TK-10; UACC-257; UO-31.
Holding throughout (test): NCI tumour cell line growth inhibition, 48 h

This note sets out measurements from ChEMBL document CHEMBL1201862, “PubChem BioAssay data set” (2004).

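Where inhibition never reached the appropriate level, the endpoint shown equals the highest concentration tested. Otherwise, values were interpolated linearly from a five-concentration, 48-hour dose response in 96-well plates. GI50 is the concentration that inhibits growth by half.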 Active and inactive are the calls of the source. No stated cut-off is given here; in the data, active = GI50 up to about 1.1 µM and inactive = higher.

For the molecule `CCCCC1NC=Nc2c1ccc1c2[nH]c2ccccc21` (stereo not given), the GI50 was 14400 nM (inactive) in the assay with A498; 1670 nM (inactive) with CCRF-CEM; 1780 nM (inactive) in the assay on HL-60; 5320 nM (inactive) in the assay with HOP-62; 3940 nM (inactive) with HOP-92; 2140 nM (inactive) in the assay on Hs-578T. The GI50 was 1940 nM (inactive) with LOX IMVI; 1880 nM (inactive) in the assay on LXFL 529; 1730 nM (inactive) in the assay with MDA-MB-231; 5330 nM (inactive) in the assay on Malme-3M; 2170 nM (inactive) in the assay on NCI-H460; 2700 nM (inactive) in the assay on OVCAR-4. For the same molecule, the GI50 in the assay on RPMI-8226 was 1840 nM (inactive); in the assay on RXF 393, 713 nM (active); in the assay on SF-268, 4000 nM (inactive); in the assay with SF-539, 3050 nM (inactive); in the assay with SR, 1280 nM (inactive); in the assay on TK-10, 5710 nM (inactive). The GI50 with UACC-257 is 1750 nM (inactive); in the assay with UO-31, 10300 nM (inactive).
Regarding `COC1=CC(=O)c2c(ccc3ncnc(N)c23)C1=O`, the GI50 in the assay on A498 is 2220 nM (inactive); in the assay with CCRF-CEM, 665 nM (active); with HL-60, 570 nM (active); with HOP-62 it was 3560 nM (inactive); in the assay with HOP-92, 1630 nM (inactive); with Hs-578T it was 3300 nM (inactive). In addition, the GI50 in the assay with LOX IMVI was 1030 nM (active); with LXFL 529, 1750 nM (inactive); in the assay on MDA-MB-231, 1190 nM (inactive); in the assay with Malme-3M it was 2630 nM (inactive); with NCI-H460, 4290 nM (inactive); in the assay on OVCAR-4 it was 561 nM (active). Further, the GI50 with RPMI-8226 was 1450 nM (inactive); in the assay with RXF 393 it was 1790 nM (inactive); in the assay on SF-268, 2470 nM (inactive); in the assay with SF-539, 1610 nM (inactive); with SR, 164 nM (active); with TK-10, 3130 nM (inactive). The figures for the GI50 with UACC-257 and in the assay on UO-31 were 1660 nM (inactive) and 2310 nM (inactive), respectively.
